“Also recorded” adds a separate entry of the source. Like-named read-outs stand apart in the source and are kept apart here. Where a SMILES comes first, the peptide text is derived from it. Bridges are numbered along the chain shown (N, C = ends). Where no end group is shown, it is not given here. [ ]: non-standard residue; d: D form.
Assays:
[1] = target: T1, AjKissR2 (Apostichopus japonicus, UniProt A0A5B7LIE4); assay: Ligand competition binding assay (FITC-AjKiss1a, FACS), HEK293/AjKissR2; conditions: 1.0 μM FITC-AjKiss1a, read-out: IC50 (competitive displacement of FITC-AjKiss1a)
T1 sequence (A0A5B7LIE4 1-327): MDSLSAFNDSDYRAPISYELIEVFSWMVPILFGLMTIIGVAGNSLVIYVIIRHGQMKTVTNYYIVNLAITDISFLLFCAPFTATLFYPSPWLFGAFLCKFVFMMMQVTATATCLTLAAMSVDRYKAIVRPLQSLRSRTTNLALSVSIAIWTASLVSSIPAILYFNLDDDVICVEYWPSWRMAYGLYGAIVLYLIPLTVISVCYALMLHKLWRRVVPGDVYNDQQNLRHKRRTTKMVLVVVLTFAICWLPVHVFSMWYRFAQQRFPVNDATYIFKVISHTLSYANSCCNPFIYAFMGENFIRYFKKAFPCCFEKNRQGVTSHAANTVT
Description: (§1) A fluorescence-activated cell sorter (FACS) was used to detect the binding ability of kisspeptins with AjKissR1 or AjKissR2. HEK293 cells expressing FLAG–AjKissR1 or FLAG–AjKissR2 were washed with PBS that contained 0.2% bovine serum albumin (FACS buffer). We designed and synthesized an N-terminal FITC-labeled AjKiss1a peptide (see 'Key resources table'). Different kisspeptins were diluted in the FACS buffer to different concentrations, then added to cells that were incubated on ice for 60–90 min. Cells were washed thrice with the FACS buffer and re-suspended in the FACS buffer with 1% paraformaldehyde for 15 min. The binding activity of the indicated kisspeptin peptides with AjKissR1 or AjKissR2 was determined by measuring the fluorescence of FITC and was presented as a percentage of total binding.

[2] = target: T1, AjKissR2; assay: cell-based; type: cell-based; conditions: for AUC: Ca2+ trace area under curve, HEK293/AjKissR2
Description: (§2) The fluorescent Ca^2+ indicator Fura-2/AM was used to detect intracellular calcium flux ([Li et al., 2010]). Briefly, the HEK293 cells expressing the AjKissR1, AjKissR2 or vertebrate kisspeptin receptor were washed twice with PBS and suspended at 5 × 10^6 cells/mL in Hanks’ balanced salt solution. The cells were then loaded with 3.0 μM Fura-2/AM for 30 min and washed twice in Hanks’ solution. They were then stimulated with the indicated concentrations of different predicted A. japonicus kisspeptins or vertebrate kisspeptins. Finally, intracellular calcium flux was measured for 60 s, by determining the ratio of excitation wavelengths at 340 and 380 nm using a fluorescence spectrometer (Infinite 200 PRO, Tecan, Männedorf, Switzerland). All of the experiments for measuring Ca^2+ mobilization were repeated independently at least three times.

[3] = target: T2, AjKissR1 (Apostichopus japonicus, UniProt A0A5B7LK60); assay: cell-based; type: cell-based
T2 sequence (A0A5B7LK60 1-378): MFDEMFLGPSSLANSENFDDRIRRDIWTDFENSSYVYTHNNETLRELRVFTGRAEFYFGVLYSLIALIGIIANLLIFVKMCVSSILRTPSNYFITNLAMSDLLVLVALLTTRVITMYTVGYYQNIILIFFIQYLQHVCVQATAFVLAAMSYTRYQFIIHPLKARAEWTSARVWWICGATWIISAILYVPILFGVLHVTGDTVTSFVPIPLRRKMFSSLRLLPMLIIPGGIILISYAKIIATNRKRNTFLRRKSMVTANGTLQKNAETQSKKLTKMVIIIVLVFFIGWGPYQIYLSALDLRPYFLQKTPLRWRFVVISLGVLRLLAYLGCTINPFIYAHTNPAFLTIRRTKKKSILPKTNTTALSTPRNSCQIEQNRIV
Description: as §2

[4] = system: zebrafish kisspeptin receptor DrKiss1Rb; assay: Intracellular Ca2+ mobilization (Fura-2/AM) in DrKiss1Rb-expressing HEK293 cells; type: cell-based; conditions: 1.0 μM peptide, HEK293, Fura-2/AM
Description: as §2

[5] = system: AjKissR2-EGFP; assay: Receptor internalization (translocation) by confocal microscopy, AjKissR2-EGFP; type: cell-based, Apostichopus japonicus; conditions: 1.0 μM ligand, 60 min
Description: For receptor-surface expression analysis, HEK293 cells expressing AjKissR1/2-EGFP were seeded onto glass coverslips in 12-well plates, coated with 0.1 mg/mL poly-L-lysine, and allowed to attach overnight under normal growth conditions ([Li et al., 2010]). The cells were washed three times with PBS and further stained with the membrane probe DiI (Beyotime) at 37°C for 5–10 min, fixed with 4% paraformaldehyde for 10 min, and then incubated with DAPI (Beyotime) for 5–10 min. For the translocation assays, the receptor-expressing cells were treated with 1.0 μM of various stimuli for 60 min, washed three times with PBS and then fixed with 4% paraformaldehyde in PBS for 10 min at room temperature. Finally, the cells were mounted in mounting reagent (DTT/PBS/glycerol, 1:8:2) and visualized by fluorescence microscopy on a Zeiss laser scanning confocal microscope, which was attached to a Zeiss Axiovert 200 microscope and linked to an LSM5 computer system.

[6] = system: human kisspeptin receptor (HsKiss1R); assay: Intracellular Ca2+ mobilization (Fura-2/AM) in HsKiss1R-expressing HEK293 cells; type: cell-based; conditions: 1.0 μM peptide, HEK293, Fura-2/AM
Description: as §2

[7] = target: T1, AjKissR2; type: cell-based; conditions: Ca2+ trace (Fura-2/AM) area under curve, AjKiss1a at Log[M] -10 (100 pM), HEK293/AjKissR2, 68 s trace
[8] = target: T2, AjKissR1; assay: Ligand competition binding assay (FITC-AjKiss1a, FACS), HEK293/AjKissR1; conditions: 1.0 μM FITC-AjKiss1a, read-out: IC50 (competitive displacement of FITC-AjKiss1a)
Description: as §1

[9] = system: zebrafish kisspeptin receptor DrKiss1Ra; assay: Intracellular Ca2+ mobilization (Fura-2/AM) in DrKiss1Ra-expressing HEK293 cells; type: cell-based; conditions: 1.0 μM peptide, HEK293, Fura-2/AM
Description: as §2

[10] = system: cultured oocytes of sea cucumber; assay: Immunofluorescence staining of p-ERK signal in cultured oocytes (confocal microscopy); type: cell-based, Apostichopus japonicus; conditions: 4-hr pre-treatment with pep234
Description: Paraffin sections were baked at 60°C for 2–4 hr and placed in xylene for 15 min, twice. The slides were washed twice in 100% ethanol for 10 min each, then in 95% ethanol for 10 min, 85% ethanol for 5 min, 70% ethanol for 5 min, and 50% ethanol for 5 min, followed by washing with dH2O for 5 min, and finally washing with PBS for 5 min. Antigen unmasking was performed in sodium citrate buffer (pH 6) for 10 min at 97°C, and then cooled to room temperature. Endogenous peroxidases were blocked by 10 min incubation in 3.0% hydrogen peroxide. Nonspecific antigens were blocked by a 60 min incubation in 0.3% bovine serum albumin (BSA) in TBST. Slides were incubated with primary antibodies overnight after removing the blocking solution, followed by 2 hr incubation with fluorescein isothiocyanate (FITC)-conjugated secondary antibodies (FITC-labeled goat anti-rabbit IgG (H+L), Beyotime). […]
(§3) For in vitro experiments, the ovary and respiratory tree tissues were cut into small pieces of approximately 1 mm^3 and cultured in Leibovitz L-15 medium (HyClone) supplemented with 12.0 g/L NaCl, 0.32 g/L KCl, 0.36 g/L CaCl2, 0.6 g/L Na2SO4, 2.4 g/L MgCl2, 0.6 g/L glucose at 18°C in a humidified incubator ([Wang et al., 2020]). For ERK1/2 phosphorylation or immunofluorescence assays, samples were evaluated or fixed after 2 hr of ligand/PBS administration, with a 4 hr pre-treatment of pep234/PBS.

[11] = system: cultured oocytes of sea cucumber; assay: ERK1/2 phosphorylation (western blot) in cultured ovary / oocytes of sea cucumber; type: cell-based, Apostichopus japonicus; conditions: pep234 1.0 μM, 4-hr pre-treatment; DrKiss1-10 or AjKiss1b-10 administrated cells
Description: To examine the phosphorylation of ERK, cells that expressed AjKissr1/2 or other GPR54s were incubated for the indicated times with different concentrations of kisspeptins. Subsequently, cells were lysed with lysis buffer (Beyotime) that contained protease inhibitor (Roche) at 4°C for 30 min on a rocker and then scraped. Proteins were then electrophoresed on a 10% SDS polyacrylamide gel and transferred to polyvinylidene difluoride (PVDF) membranes. Membranes were blocked with 5% skimmed milk, then probed with rabbit anti-phospho-ERK1/2(Thr^202/Tyr^204) antibody (1:2000; Cell Signaling Technology), followed by detection using HRP-conjugated goat anti-rabbit IgG (Beyotime). Blots were stripped and reprobed using anti-ERK1/2 antibody (1:2000; Cell Signaling Technology) as a control for protein loading.
as §3

[12] = target: FLAG–AjKissR1 (Apostichopus japonicus); assay: flow cytometry on cells; ligand competition: 1.0 uM FITC-AjKiss1a with unlabeled kisspeptins at the indicated concentrations on HEK293 cells expressing FLAG-AjKissR1 or FLAG-AjKissR2; on ice 60-90 min; PBS with 0.2% BSA; FITC fluorescence as percentage of total binding
[13] = target: FLAG–AjKissR1 (Apostichopus japonicus)
[14] = target: T3, FLAG–AjKissR2 (Apostichopus japonicus); assay: competition with 1.0 uM FITC-AjKiss1a
T3 chain: T1 sequence (A0A5B7LIE4 1-327)

[15] = log(agonist) vs. response (three parameters) fit of AUC, AjKiss1a on AjKissR2, 5 points
[16] = fit of AUC vs Log[AjKiss1a]M, source data Figure 3B1

In the case of `CC(C)C[C@H](NC(=O)[C@H](CO)NC(=O)CNC(=O)[C@H](C)N)C(=O)N[C@@H](CC(=O)O)C(=O)N[C@H]1CSSC[C@@H](C(=O)N[C@@H](CCC(=O)O)C(=O)N[C@@H](CC(=O)O)C(=O)N[C@H](C(=O)N[C@@H](CCC(=O)O)C(=O)N[C@@H](CCCNC(=N)N)C(=O)N[C@@H](CCCNC(=N)N)C(=O)NCC(=O)N[C@@H](CCCNC(=N)N)C(=O)N[C@@H](CCC(N)=O)C(=O)N2CCC[C@H]2C(=O)N[C@@H](CC(N)=O)C(=O)N[C@@H](CCCNC(=N)N)C(=O)N[C@@H](CC(N)=O)C(=O)N[C@@H](C)C(=O)N[C@@H](Cc2c[nH]cn2)C(=O)N[C@@H](Cc2ccc(O)cc2)C(=O)N[C@@H](CCCNC(=N)N)C(=O)N[C@H](C(=O)N[C@@H](CC(C)C)C(=O)N2CCC[C@H]2C(=O)N[C@@H](Cc2ccccc2)C(N)=O)[C@@H](C)O)C(C)C)NC(=O)[C@H](CO)NC(=O)[C@H](C)NC(=O)[C@H](CCC(=O)O)NC(=O)[C@H](CC(C)C)NC1=O` [AjKiss1a] (H-AGSLDCLEASCEDVERRGRQPNRNAHYRTLPF-NH2; disulfide 6-11), the IC50 [1] is reported as 95.2 nM, the EC50 [2] is reported as 1.98 nM and the AUC ([2]; AjKiss1a at Log[M] -6 (1 μM)) is reported as 24.14. For the same molecule, the AUC ([2]; AjKiss1a at Log[M] -7 (100 nM)) was 24.83, the AUC ([2]; AjKiss1a at Log[M] -8 (10 nM)) was 24.2 and the AUC ([2]; AjKiss1a at Log[M] -9 (1 nM)) was 11.14. The “Bottom (best-fit value)” value [2, 15] was 6.057, the “Span (best-fit value)” value [2, 15] was 19.28 and the “Top (best-fit value)” value [2, 15] was 25.34. For the same molecule, the “LogEC50 (best-fit value)” value ([2]; log(agonist) vs. response (three parameters) fit of AUC, Log[AjKiss1a]M, AjKissR2, 5 points) was -8.703, the EC50 [3] was 80.8 nM and the “AUC (Ca2+ mobilization)” value ([3]; Log[AjKiss1a]M -6) was 18.82. For the same molecule, the “AUC (Ca2+ mobilization)” value ([3]; Log[AjKiss1a]M -7) was 12.93, the “AUC (Ca2+ mobilization)” value ([3]; Log[AjKiss1a]M -8) was 8.793 and the “AUC (Ca2+ mobilization)” value ([3]; Log[AjKiss1a]M -9) was 6.715. The “AUC (Ca2+ mobilization)” value ([3]; Log[AjKiss1a]M -10) was 4.474, the “Bottom (best-fit value)” value [3, 16] was 5.962 and the “LogEC50 (best-fit value)” value [3, 16] was -7.093. For the same molecule, the “Span (best-fit value)” value [3, 16] was 13.69, the “Top (best-fit value)” value [3, 16] was 19.65 and the “Activation of DrKiss1Rb, Ca2+ mobilization (in words)” value [4] was “could activate; also recorded: could potentiate”. For the same molecule, the “Internalization of AjKissR2-EGFP from the plasma membrane to the cytoplasm (in words)” value [5] was “significant internalization”, the “Activation of HsKiss1R, Ca2+ mobilization (in words)” value [6] was “could activate; also recorded: could potentiate” and the AUC [7] was 7.592. For the same molecule, the IC50 [8] was 568 nM and the “Activation of DrKiss1Ra, Ca2+ mobilization (in words)” value [9] was “could activate; also recorded: could potentiate”.

“Ac-[dA]NWNGFG[dW]RF-NH2 [pep234, vertebrate kisspeptin antagonist]” was tested, and the “Inhibition of AjKiss1b-10-induced p-ERK signal in oocytes, confocal microscopy (in words)” value [10] was “inhibition” and the “Block of kisspeptin-induced ERK phosphorylation signal, western blot (in words)” value [11] was “blocked”.

SAVKNKNKSRARPPLLPF-NH2 [AjKiss1b (C-terminal amidated)] showed an IC50 [12] of 353 nM, an EC50 of intracellular Ca2+ mobilization (Fura-2/AM) in HEK293 cells expressing FLAG-AjKissR1 [13] of 8.06 nM and an IC50 [14] of 1250 nM.

— article PMC7282810, “Existence and functions of a kisspeptin neuropeptide signaling system in a non-chordate deuterostome species” (eLife, 2020)
